Here are results for nine compounds from US12319655B2, “RAF kinase inhibitors and methods of use thereof” (Deciphera Pharmaceuticals, LLC, priority 2021, dated 2025).

The test system of one test is A375 cells. The test is described as follows: A375 Cell Proliferation Assay (2). In kind it is cell-based. Particulars: Homo sapiens, A-375. The method, then:
A375 Cell Proliferation Assay (2)
A375 cells (catalog (#CRL-1619) are obtained from the American Type Culture Collect (ATTC, Manassas, VA). Briefly, cells were grown in DMEM High Glucose supplemented with 10% characterized fetal bovine serum (Invitrogen, Carlsbad, CA) and 1% Penicillin/Streptomycin/L-Glutamine at 37° C., 5% CO2, and 95% humidity. Cells are expanded until reaching 70-95% confluency at which point they are sub-cultured or harvested for assay use. Using the Beckman Coulter Echo 650, a serial dilution of test compound is dispensed into a 384-well black clear bottom plate in triplicate. Six hundred twenty-five cells are added per well in 50 μL complete growth medium in the 384-well plate. Plates are incubated for 67-72 h at 37° C., 5% CO2, and 95% humidity. At the end of the incubation, 10 μL of a 440 μM solution of resazurin (Sigma, St. Louis, MO) in PBS is added to each well of the plate and plates are incubated for an additional 3-6 h at 37° C., 5% CO2, and 95% humidity. Plates are read on a Synergy2 or equivalent reader (Biotek, Winooski VT) using an excitation of 540 nm and an emission of 600 nm. Data is analyzed using Prism software (GraphPad, San Diego, CA) to calculate IC50 values.

The target of test [1] is B-Raf (V600E) (SEQ. ID NO: 4) kinase (Homo sapiens (Human), UniProt P15056, V600E). The test is described as follows: Biochemical Assay for B-Raf (V600E) (2). To be noted: Table J, BRAF V600E, biochemical assay (2); read-out: BRAF VE (2). On the procedure: Biochemical Assay for B-Raf (V600E) (2)
Activity of B-Raf (V600E) (SEQ. ID NO: 4) kinase was determined spectroscopically using a coupled pyruvate kinase/lactate dehydrogenase assay that continuously monitors the ATP hydrolysis-dependent oxidation of NADH (e.g., Schindler et al., Science, 2000, 289, 1938-1942). Assays were conducted in 384-well plates (25 μL final volume) using 0.5 nM B-Raf (deCode), 1.5 units pyruvate kinase, 2.1 units lactate dehydrogenase, 1 mM phosphoenol pyruvate, 0.7 mM NADH, 100 nM MEK (SignalChem), and 1 mM ATP in assay buffer (100 mM Tris, pH 7.5, 15 mM MgCl2, 0.5 mM DTT, 0.1% octyl-glucoside, 0.002% (w/v) BSA, and 0.002% Triton X-100). Inhibition of B-Raf (V600E) was measured by adding serial diluted test compound (final assay concentration of 1% DMSO). A decrease in absorption at 340 nm was monitored hourly for 4 h at 30° C. on a multi-mode microplate reader (BioTek). The reaction rate was calculated using the 3 to 4 h time frame. The reaction rate at each concentration of compound was converted to percent inhibition using controls (i.e., reaction with no test compound and reaction with a known inhibitor) and IC50 values were calculated by fitting a four-parameter sigmoidal curve to the data using Prism (GraphPad software).

In test [2] the target is C-Raf kinase (SEQ. ID NO: 3) (Homo sapiens (Human), UniProt P04049, Y340D/Y341D). Briefly: Biochemical Assay for C-Raf (2). To be noted: Table J, biochemical assay (2); read-out: CRAF (2). The method, then: Biochemical Assay for C-Raf (2)
Activity of C-Raf kinase (SEQ. ID NO: 3) was determined spectroscopically using a coupled pyruvate kinase/lactate dehydrogenase assay that continuously monitors the ATP hydrolysis-dependent oxidation of NADH (e.g., Schindler et al., Science, 2000, 289, 1938-1942). Assays were conducted in 384-well plates (25 μL final volume) using 3.84 nM C-Raf (Eurofins), 1.5 units pyruvate kinase, 2.1 units lactate dehydrogenase, 1 mM phosphoenol pyruvate, 0.7 mM NADH, 50 nM MEK (SignalChem), and 1 mM ATP in assay buffer (100 mM Tris, pH 7.5, 15 mM MgCl2, 0.5 mM DTT, 0.1% octyl-glucoside, 0.002% (w/v) BSA, and 0.002% Triton X-100). Inhibition of C-Raf was measured by adding serial diluted test compound (final assay concentration of 1% DMSO). A decrease in absorption at 340 nm was monitored hourly for 4 h at 30° C. on a multi-mode microplate reader (BioTek). The reaction rate was calculated using the 2 to 3 h time frame. The reaction rate at each concentration of compound was converted to percent inhibition using controls (i.e., reaction with no test compound and reaction with a known inhibitor) and IC50 values were calculated by fitting a four-parameter sigmoidal curve to the data using Prism (GraphPad software).

The target of test [3] is A-Raf kinase (SEQ. ID No: 1) (Homo sapiens (Human), UniProt P10398, Y301D/Y302D). The test is described as follows: Biochemical Assay for A-Raf (2). To be noted: Table J, biochemical assay (2); read-out: ARAF (2). On the procedure: Biochemical Assay for A-Raf (2)
Activity of A-Raf kinase (SEQ. ID No: 1) was determined spectroscopically using a coupled pyruvate kinase/lactate dehydrogenase assay that continuously monitors the ATP hydrolysis-dependent oxidation of NADH (e.g., Schindler et al., Science, 2000, 289, 1938-1942). Assays were conducted in 384-well plates (25 μL final volume) using 20 nM A-Raf (Eurofins), 1.5 units pyruvate kinase, 2.1 units lactate dehydrogenase, 1 mM phosphoenol pyruvate, 0.7 mM NADH, 100 nM MEK (SignalChem), and 1 mM ATP in assay buffer (100 mM Tris, pH 7.5, 15 mM MgCl2, 0.5 mM DTT, 0.1% octyl-glucoside, 0.002% (w/v) BSA, and 0.002% Triton X-100). Inhibition of A-Raf was measured by adding serial diluted test compound (final assay concentration of 1% DMSO). A decrease in absorption at 340 nm was monitored hourly for 4 h at 30° C. on a multi-mode microplate reader (BioTek). The reaction rate was calculated using the 3 to 4 h time frame. The reaction rate at each concentration of compound was converted to percent inhibition using controls (i.e., reaction with no test compound and reaction with a known inhibitor) and IC50 values were calculated by fitting a four-parameter sigmoidal curve to the data using Prism (GraphPad software).

Each structure is given as a SMILES string.

A-Raf kinase (SEQ. ID No: 1), sequence (P10398 other isoform, or with tags, fused parts or gaps Y301D (already in the parent)/Y302D (already in the parent)): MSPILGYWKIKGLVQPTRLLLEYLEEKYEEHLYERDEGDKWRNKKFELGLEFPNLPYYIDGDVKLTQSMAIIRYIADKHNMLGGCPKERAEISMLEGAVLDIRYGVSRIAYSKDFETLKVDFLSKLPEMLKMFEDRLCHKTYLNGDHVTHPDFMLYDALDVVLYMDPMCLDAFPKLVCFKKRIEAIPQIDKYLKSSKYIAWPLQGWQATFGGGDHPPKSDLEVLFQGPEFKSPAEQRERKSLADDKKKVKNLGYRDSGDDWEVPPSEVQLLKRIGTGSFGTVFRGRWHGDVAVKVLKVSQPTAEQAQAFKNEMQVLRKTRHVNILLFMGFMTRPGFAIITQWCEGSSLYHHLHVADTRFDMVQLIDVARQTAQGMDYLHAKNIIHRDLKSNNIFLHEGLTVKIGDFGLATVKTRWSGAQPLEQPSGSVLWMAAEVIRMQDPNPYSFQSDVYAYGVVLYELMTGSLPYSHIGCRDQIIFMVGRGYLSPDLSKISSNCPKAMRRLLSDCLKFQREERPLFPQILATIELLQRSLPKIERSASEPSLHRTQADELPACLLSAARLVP
B-Raf (V600E) (SEQ. ID NO: 4) kinase, sequence (P15056 416-766 V600E): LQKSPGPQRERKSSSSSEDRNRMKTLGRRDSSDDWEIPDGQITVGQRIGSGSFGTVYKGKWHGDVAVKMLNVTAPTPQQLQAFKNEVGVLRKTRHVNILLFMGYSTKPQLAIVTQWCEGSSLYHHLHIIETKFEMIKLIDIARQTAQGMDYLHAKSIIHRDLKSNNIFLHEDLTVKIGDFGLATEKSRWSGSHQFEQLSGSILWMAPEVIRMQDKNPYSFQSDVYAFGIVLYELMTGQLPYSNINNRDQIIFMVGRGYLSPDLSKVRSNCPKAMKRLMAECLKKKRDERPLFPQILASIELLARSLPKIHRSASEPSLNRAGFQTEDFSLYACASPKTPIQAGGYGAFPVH
C-Raf kinase (SEQ. ID NO: 3), sequence (P04049 307-648 Y340D/Y341D): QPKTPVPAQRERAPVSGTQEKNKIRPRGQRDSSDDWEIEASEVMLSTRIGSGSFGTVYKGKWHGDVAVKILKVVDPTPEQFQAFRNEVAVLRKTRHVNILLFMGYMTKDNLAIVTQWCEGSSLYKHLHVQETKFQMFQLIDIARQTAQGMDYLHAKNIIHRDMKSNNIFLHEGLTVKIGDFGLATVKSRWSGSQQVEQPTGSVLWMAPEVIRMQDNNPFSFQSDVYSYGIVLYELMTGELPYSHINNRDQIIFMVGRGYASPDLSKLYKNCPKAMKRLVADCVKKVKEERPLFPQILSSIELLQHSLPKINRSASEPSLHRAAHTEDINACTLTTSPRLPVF

Consider `Cc1ccc(NC(=O)c2ccnc(C(C)(C)F)c2)cc1-c1ccnc(-c2ccnc(C(N)=O)c2)c1` [Example 476], for which the IC50 in the test with A375 cells is not above 100 nM; in test [1] it was not above 100 nM; in test [2] it was not above 100 nM; in test [3], 500 to 1000 nM.
Take `CNC(=O)c1cc(-c2cc(-c3cc(NC(=O)c4cnnc(C(F)(F)F)c4)ccc3C)ccn2)ccn1` [Example 477]: the IC50 in the test with A375 cells was 1000 to 10000 nM; in test [1], 100 to 500 nM; in test [2], not above 100 nM; in test [3], 1000 to 10000 nM.
On to `CNC(=O)c1cc(-c2cc(-c3cc(NC(=O)c4ccnc(C(C)(C)F)c4)cc(F)c3F)ccn2)ccn1` [Example 478], for which the IC50 was 1000 to 10000 nM in the test on A375 cells, not above 100 nM in test [1], 100 to 500 nM in test [2] and 1000 to 10000 nM in test [3].
On to `CNC(=O)c1cc(-c2cc(-c3cc(NC(=O)c4ccnc(C(C)(C)F)c4)ccc3F)ccn2)ccn1` [Example 479], for which the IC50 is 100 to 500 nM in the test with A375 cells, 100 to 500 nM in test [1], not above 100 nM in test [2] and 100 to 500 nM in test [3].
Consider `CNC(=O)c1cc(-c2cc(-c3cc(NC(=O)c4ccnc(C(C)(C)F)c4)cc(F)c3C)ccn2)ccn1` [Example 480], for which the IC50 is 100 to 500 nM in the test with A375 cells, not above 100 nM in test [1], 100 to 500 nM in test [2] and 1000 to 10000 nM in test [3].
Regarding `CNC(=O)c1cc(-c2cc(-c3cc(NC(=O)c4ccnc(C(C)(C)F)c4)ccn3)ccn2)ccn1` [Example 481], the IC50 is 1000 to 10000 nM in the test with A375 cells, 1000 to 10000 nM in test [1], 500 to 1000 nM in test [2] and 1000 to 10000 nM in test [3].
For `CNC(=O)c1cc(-c2cc(-c3cc(NC(=O)c4ccnc(C(C)(C)F)c4)c(F)cc3F)ccn2)ccn1` [Example 482], the IC50 was 100 to 500 nM with A375 cells, not above 100 nM in test [1], not above 100 nM in test [2] and 500 to 1000 nM in test [3].
As to `Cc1cc(-c2cc(NC(=O)c3ccnc(C(C)(C)F)c3)ccc2C)cc(-c2ccnc(C#N)c2)n1` [Example 483], the IC50 with A375 cells was 1000 to 10000 nM; in test [1] it was 100 to 500 nM; in test [2], not above 100 nM; in test [3] it was 1000 to 10000 nM.
For `Cc1cc(-c2cc(NC(=O)c3ccnc(C(C)(C)F)c3)ccc2C)cc(-c2ccnc(C(N)=O)c2)n1` [Example 484], the IC50 is not above 100 nM in the test with A375 cells, not above 100 nM in test [1], not above 100 nM in test [2] and 500 to 1000 nM in test [3].
